According to the supplement of paper PMC10307832:

How the values were obtained:
Test in all cases: relative viability (nuclei count vs DMSO), 5 days (fraction); higher = more cells survive
NCI-H1944 = tested on: NCI-H1944
Summary of the method: (§1)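 Relative viability divides the nuclei count in treated wells by that in vehicle wells. Lung cancer cell lines were seeded in 1536-well plates, dosed by pin tool the next day, and fixed and stained after 5 days in one step with final 0.05% Triton X-100, 1% formaldehyde and 1 ug/ml Hoechst. Dosing was a single drug or a fixed anchor-drug dose plus five library-drug doses (not always all listed) in √10 steps, and values are medians of duplicate plates imaged at 4×.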

UMC-11 = tested on: UMC-11
Summary of the method: as §1

LXF-289 = tested on: LXF-289
Summary of the method: as §1

LC-2-ad = tested on: LC-2-ad
Summary of the method: as §1

COR-L 105 = tested on: COR-L 105
Summary of the method: as §1

NCI-H2170 = tested on: NCI-H2170
Summary of the method: as §1

HCC-78 = tested on: HCC-78
Summary of the method: as §1

A-427 = tested on: A-427
Summary of the method: as §1

HCC-366 = tested on: HCC-366
Summary of the method: as §1

HOP-62 = tested on: HOP-62
Summary of the method: as §1

NCI-H2009 = tested on: NCI-H2009
Summary of the method: as §1

LU99A = tested on: LU99A
Summary of the method: as §1

NCI-H1915 = tested on: NCI-H1915
Summary of the method: as §1

EPLC-272H = tested on: EPLC-272H
Summary of the method: as §1

NCI-H1666 = tested on: NCI-H1666
Summary of the method: as §1

NCI-H2085 = tested on: NCI-H2085
Summary of the method: as §1

NCI-H358 = tested on: NCI-H358
Summary of the method: as §1

NCI-H460 = tested on: NCI-H460
Summary of the method: as §1

SK-LU-1 = tested on: SK-LU-1
Summary of the method: as §1

NCI-H1792 = tested on: NCI-H1792
Summary of the method: as §1

COc1cc2nccc(Oc3ccc(NC(=O)Nc4cc(C)on4)c(Cl)c3)c2cc1OC [Tivozanib] + C[C@@H](Oc1cc(-c2cnn(C3CCNCC3)c2)cnc1N)c1c(Cl)ccc(F)c1Cl [Crizotinib] (partner 1 µM)
relative viability (NCI-H1944; first compound 0.005 µM): 1.13 | relative viability (NCI-H1944; first compound 0.01581 µM): 1.05 | relative viability (NCI-H1944; first compound 0.05 µM): 1.1 | relative viability (NCI-H1944; first compound 0.1581 µM): 1.02 | relative viability (NCI-H1944; first compound 0.5 µM): 1.28 | relative viability (UMC-11; first compound 0.005 µM): 0.656 | relative viability (UMC-11; first compound 0.01581 µM): 0.603 | relative viability (UMC-11; first compound 0.05 µM): 0.649 | relative viability (UMC-11; first compound 0.5 µM): 0.536 | relative viability (LXF-289; first compound 0.005 µM): 0.762 | relative viability (LXF-289; first compound 0.01581 µM): 0.742 | relative viability (LXF-289; first compound 0.05 µM): 0.82 | relative viability (LXF-289; first compound 0.1581 µM): 0.864 | relative viability (LXF-289; first compound 0.5 µM): 0.705 | relative viability (LC-2-ad; first compound 0.005 µM): 0.413 | relative viability (LC-2-ad; first compound 0.01581 µM): 0.426 | relative viability (LC-2-ad; first compound 0.05 µM): 0.522 | relative viability (LC-2-ad; first compound 0.1581 µM): 0.468 | relative viability (LC-2-ad; first compound 0.5 µM): 0.347 | relative viability (COR-L 105; first compound 0.01581 µM): 0.794 | relative viability (COR-L 105; first compound 0.05 µM): 0.797 | relative viability (COR-L 105; first compound 0.1581 µM): 0.775 | relative viability (COR-L 105; first compound 0.5 µM): 0.701 | relative viability (NCI-H2170; first compound 0.005 µM): 1.11 | relative viability (NCI-H2170; first compound 0.01581 µM): 1.21 | relative viability (NCI-H2170; first compound 0.05 µM): 1.24 | relative viability (NCI-H2170; first compound 0.5 µM): 1.17 | relative viability (HCC-78; first compound 0.005 µM): 0.352 | relative viability (HCC-78; first compound 0.01581 µM): 0.365 | relative viability (HCC-78; first compound 0.05 µM): 0.313 | relative viability (HCC-78; first compound 0.1581 µM): 0.364 | relative viability (HCC-78; first compound 0.5 µM): 0.351 | relative viability (A-427; first compound 0.005 µM): 0.82 | relative viability (A-427; first compound 0.01581 µM): 0.84 | relative viability (A-427; first compound 0.05 µM): 0.986 | relative viability (A-427; first compound 0.1581 µM): 0.818 | relative viability (A-427; first compound 0.5 µM): 0.827 | relative viability (HCC-366; first compound 0.005 µM): 0.515 | relative viability (HCC-366; first compound 0.01581 µM): 0.59 | relative viability (HCC-366; first compound 0.05 µM): 0.502 | relative viability (HCC-366; first compound 0.1581 µM): 0.487 | relative viability (HCC-366; first compound 0.5 µM): 0.372 | relative viability (HOP-62; first compound 0.005 µM): 0.557 | relative viability (HOP-62; first compound 0.01581 µM): 0.939 | relative viability (HOP-62; first compound 0.05 µM): 0.928 | relative viability (HOP-62; first compound 0.1581 µM): 0.853 | relative viability (HOP-62; first compound 0.5 µM): 0.919 | relative viability (NCI-H2009; first compound 0.005 µM): 1.08 | relative viability (NCI-H2009; first compound 0.01581 µM): 1.02 | relative viability (NCI-H2009; first compound 0.05 µM): 1.1 | relative viability (NCI-H2009; first compound 0.1581 µM): 1.03 | relative viability (NCI-H2009; first compound 0.5 µM): 0.933 | relative viability (LU99A; first compound 0.005 µM): 0.549 | relative viability (LU99A; first compound 0.01581 µM): 0.537 | relative viability (LU99A; first compound 0.05 µM): 0.555 | relative viability (LU99A; first compound 0.5 µM): 0.482 | relative viability (NCI-H1915; first compound 0.005 µM): 0.863 | relative viability (NCI-H1915; first compound 0.01581 µM): 0.905 | relative viability (NCI-H1915; first compound 0.05 µM): 0.972 | relative viability (NCI-H1915; first compound 0.1581 µM): 0.924 | relative viability (NCI-H1915; first compound 0.5 µM): 0.857 | relative viability (EPLC-272H; first compound 0.005 µM): 0.945 | relative viability (EPLC-272H; first compound 0.01581 µM): 0.829 | relative viability (EPLC-272H; first compound 0.05 µM): 0.937 | relative viability (EPLC-272H; first compound 0.1581 µM): 0.718 | relative viability (EPLC-272H; first compound 0.5 µM): 0.715 | relative viability (NCI-H1666; first compound 0.005 µM): 0.963 | relative viability (NCI-H1666; first compound 0.01581 µM): 0.905 | relative viability (NCI-H1666; first compound 0.05 µM): 0.901 | relative viability (NCI-H1666; first compound 0.1581 µM): 1.21 | relative viability (NCI-H1666; first compound 0.5 µM): 0.853 | relative viability (NCI-H2085; first compound 0.005 µM): 0.699 | relative viability (NCI-H2085; first compound 0.01581 µM): 0.87 | relative viability (NCI-H2085; first compound 0.05 µM): 0.912 | relative viability (NCI-H2085; first compound 0.1581 µM): 0.802 | relative viability (NCI-H2085; first compound 0.5 µM): 0.814 | relative viability (NCI-H358; first compound 0.005 µM): 0.594 | relative viability (NCI-H358; first compound 0.01581 µM): 0.706 | relative viability (NCI-H358; first compound 0.05 µM): 0.622 | relative viability (NCI-H358; first compound 0.1581 µM): 0.604 | relative viability (NCI-H358; first compound 0.5 µM): 0.462 | relative viability (NCI-H460; first compound 0.005 µM): 0.889 | relative viability (NCI-H460; first compound 0.01581 µM): 1.09 | relative viability (NCI-H460; first compound 0.05 µM): 0.96 | relative viability (NCI-H460; first compound 0.1581 µM): 0.935 | relative viability (NCI-H460; first compound 0.5 µM): 0.897 | relative viability (SK-LU-1; first compound 0.005 µM): 0.909 | relative viability (SK-LU-1; first compound 0.01581 µM): 0.864 | relative viability (SK-LU-1; first compound 0.05 µM): 0.932 | relative viability (SK-LU-1; first compound 0.1581 µM): 0.614 | relative viability (SK-LU-1; first compound 0.5 µM): 0.84 | relative viability (NCI-H1792; first compound 0.005 µM): 0.96 | relative viability (NCI-H1792; first compound 0.01581 µM): 1.01 | relative viability (NCI-H1792; first compound 0.05 µM): 1.07 | relative viability (NCI-H1792; first compound 0.1581 µM): 0.933 | relative viability (NCI-H1792; first compound 0.5 µM): 1.07
